# From ChEMBL document CHEMBL4229332, “Novel multi-target azinesulfonamides of cyclic amine derivatives as potential antipsychotics with pro-social and pro-cognitive effects” (Eur J Med Chem, 2018)
# pEC50, pKi: −log10 of the molar value. The source made the active and inactive calls. No cut-off for these calls is given here.
# Legend:
# [1] = molecular target: T1, 5-hydroxytryptamine receptor 1A (Homo sapiens) (UniProt P08908); settings: CHO-K1, 10^-7 M
# T1 sequence (whole entry): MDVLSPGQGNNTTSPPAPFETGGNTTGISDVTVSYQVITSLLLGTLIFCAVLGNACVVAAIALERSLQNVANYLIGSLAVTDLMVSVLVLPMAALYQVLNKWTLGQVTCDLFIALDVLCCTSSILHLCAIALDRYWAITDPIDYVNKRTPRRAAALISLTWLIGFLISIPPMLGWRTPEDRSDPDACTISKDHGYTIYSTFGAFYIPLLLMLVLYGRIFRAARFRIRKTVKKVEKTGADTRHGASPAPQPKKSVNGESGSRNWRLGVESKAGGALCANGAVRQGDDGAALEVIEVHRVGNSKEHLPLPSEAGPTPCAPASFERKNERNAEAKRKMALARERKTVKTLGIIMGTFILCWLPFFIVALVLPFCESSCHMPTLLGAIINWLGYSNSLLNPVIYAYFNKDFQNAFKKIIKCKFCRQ
# Rattus norvegicus [2] = species: Rattus norvegicus; test: animal or person; settings: Sprague-Dawley, ip, read-out: MED
# Description: Reversal of PCP-induced cognitive impairment in ip dosed Sprague-Dawley rat assessed as reduction in time spent exploring novel object over familiar object pretreated for 60 mins followed by PCP addition by novel object recognition assay
# Rattus norvegicus [3] = test: Effect on failure incidence during conditioned avoidance response test in Sprague-Dawley rat at 2 mg/kg, ip administered 60 mins prior to testing; format: ADME, organism-based; settings: in vivo, 1 h
# [4] = Toxicity in ip dosed Sprague-Dawley rat assessed as sedation pretreated for 60 mins followed by PCP addition measured for 30 mins starting 15 min after rat reintroduction to auto-tracks; format: organism-based; settings: in vivo
# Rattus norvegicus [5] = species: Rattus norvegicus; test: animal or person; settings: Sprague-Dawley, ip, read-out: MED; remark: listed apart in the source
# Description: Antipsychotic activity in ip dosed Sprague-Dawley rat assessed as suppression of avoidance behavior by avoiding foot shock administered 60 mins prior to test by conditioned avoidance response test
# Rattus norvegicus [6] = species: Rattus norvegicus; test: animal or person; settings: Sprague-Dawley, ip, read-out: MED; remark: listed apart in the source
# Description: Antipsychotic activity in ip dosed Sprague-Dawley rat assessed as reduction in PCP-induced hyper-locomotion pretreated for 60 mins followed by PCP addition measured for 30 mins starting 15 min after rat reintroduction to auto-tracks
# [7] = Toxicity in ip dosed Sprague-Dawley rat assessed as induction of catalepsy measured every 30 mins up to 240 mins by bar test; format: organism-based; settings: Sprague-Dawley, in vivo
# Rattus norvegicus [8] = test: Toxicity in Wistar rat assessed as increase in prolactin level at 3 mg/kg, po after 60 mins by ELISA; format: organism-based; settings: in vivo, 1 h
# [9] = molecular target: 5-hydroxytryptamine receptor 1D (Rattus norvegicus) (UniProt P28565); test: Antagonist activity at rat 5-HT1DR expressed in CHO cells assessed as inhibition of serotonin-induced response by cellular dielectric spectroscopy; format: functional, cell-based
# Chain of 5-hydroxytryptamine receptor 1D (Rattus norvegicus) (P28565 whole entry): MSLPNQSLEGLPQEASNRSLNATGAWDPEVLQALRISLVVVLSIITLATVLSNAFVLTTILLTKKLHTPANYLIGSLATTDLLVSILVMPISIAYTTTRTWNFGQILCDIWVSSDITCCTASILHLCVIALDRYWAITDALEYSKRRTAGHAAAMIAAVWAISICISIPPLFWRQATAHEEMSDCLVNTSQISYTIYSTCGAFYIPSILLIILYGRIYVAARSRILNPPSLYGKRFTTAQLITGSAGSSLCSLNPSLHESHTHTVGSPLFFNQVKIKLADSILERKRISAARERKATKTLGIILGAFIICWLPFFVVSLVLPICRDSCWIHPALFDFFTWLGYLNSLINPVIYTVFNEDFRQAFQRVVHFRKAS
# [10] = Drug level in Wistar rat brain at 3 mg/kg, ip measured after 30 mins by LC-MS/MS analysis; format: ADME, organism-based; settings: read-out: Drug uptake
# [11] = molecular target: D(3) dopamine receptor (Homo sapiens) (UniProt P35462); test: Antagonist activity at human D3R expressed in CHO-K1 cells assessed as inhibition of dopamine induced cAMP accumulation at 10^-6 M after 30 mins by HTRF method; format: functional, cell-based
# Chain of D(3) dopamine receptor (Homo sapiens) (P35462 whole entry): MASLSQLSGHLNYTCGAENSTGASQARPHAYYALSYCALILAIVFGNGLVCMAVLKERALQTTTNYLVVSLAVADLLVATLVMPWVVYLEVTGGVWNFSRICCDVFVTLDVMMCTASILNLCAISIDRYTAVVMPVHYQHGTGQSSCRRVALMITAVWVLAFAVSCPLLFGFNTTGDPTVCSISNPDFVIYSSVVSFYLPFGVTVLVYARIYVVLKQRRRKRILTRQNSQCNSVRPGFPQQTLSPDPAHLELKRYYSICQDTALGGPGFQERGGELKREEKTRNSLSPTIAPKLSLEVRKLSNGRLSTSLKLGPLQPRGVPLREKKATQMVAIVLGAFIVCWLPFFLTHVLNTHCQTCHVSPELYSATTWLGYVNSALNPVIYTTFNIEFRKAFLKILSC
# Rattus norvegicus [12] = test: Antipsychotic activity in Sprague-Dawley rat assessed as reduction in PCP-induced hyper-locomotion at 1 to 3 mg/kg, ip pretreated for 60 mins followed by PCP addition measured for 30 mins starting 15 min after rat reintroduction to auto-tracks; format: functional, organism-based
# [13] = molecular target: T2, 5-hydroxytryptamine receptor 7 (Homo sapiens, UniProt P34969); test: Antagonist activity at human 5-HT7R expressed in CHO-K1 cells assessed as inhibition of serotonin-induced cAMP accumulation after 30 mins by chemiluminescence-based assay; format: functional, cell-based
# T2 sequence (P34969 whole entry): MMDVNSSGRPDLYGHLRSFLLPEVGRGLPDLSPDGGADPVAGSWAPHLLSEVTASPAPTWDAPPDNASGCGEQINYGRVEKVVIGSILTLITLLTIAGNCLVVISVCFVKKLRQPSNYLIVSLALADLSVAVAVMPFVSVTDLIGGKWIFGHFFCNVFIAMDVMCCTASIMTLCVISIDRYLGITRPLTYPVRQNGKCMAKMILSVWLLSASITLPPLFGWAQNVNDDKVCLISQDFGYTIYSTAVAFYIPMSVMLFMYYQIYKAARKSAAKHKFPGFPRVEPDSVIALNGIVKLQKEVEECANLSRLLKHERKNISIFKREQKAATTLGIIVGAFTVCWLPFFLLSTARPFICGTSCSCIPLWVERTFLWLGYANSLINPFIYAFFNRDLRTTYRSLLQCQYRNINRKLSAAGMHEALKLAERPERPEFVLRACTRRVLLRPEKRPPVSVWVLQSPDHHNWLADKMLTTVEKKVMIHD
# [14] = molecular target: T2, 5-hydroxytryptamine receptor 7; test: Antagonist activity at human 5-HT7R expressed in CHO-K1 cells assessed as inhibition of serotonin-induced cAMP accumulation at 10^-6 M after 30 mins by chemiluminescence-based assay; format: functional, cell-based
# [15] = molecular target: D(2) dopamine receptor (Homo sapiens) (UniProt P14416); test: Antagonist activity at human D2LR expressed in CHO-K1 cells assessed as inhibition of dopamine-induced calcium flux by fluorimetric method; format: functional, cell-based
# Chain of D(2) dopamine receptor (Homo sapiens) (P14416 whole entry): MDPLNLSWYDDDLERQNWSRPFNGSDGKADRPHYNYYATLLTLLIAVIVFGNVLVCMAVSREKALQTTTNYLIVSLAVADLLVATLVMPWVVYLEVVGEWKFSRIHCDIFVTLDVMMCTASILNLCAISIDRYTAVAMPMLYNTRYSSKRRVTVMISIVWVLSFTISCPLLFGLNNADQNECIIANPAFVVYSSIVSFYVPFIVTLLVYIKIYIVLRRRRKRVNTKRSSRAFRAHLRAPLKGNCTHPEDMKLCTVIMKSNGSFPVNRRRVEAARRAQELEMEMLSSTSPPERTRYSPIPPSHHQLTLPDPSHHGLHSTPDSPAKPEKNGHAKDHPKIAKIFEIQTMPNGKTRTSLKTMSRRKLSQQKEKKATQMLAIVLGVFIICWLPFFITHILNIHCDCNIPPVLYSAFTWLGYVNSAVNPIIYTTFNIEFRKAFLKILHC
# [16] = molecular target: T3, 5-hydroxytryptamine receptor 1A (Homo sapiens, UniProt P08908); test: biochemical
# T3 sequence (P08908 whole entry): T1 sequence (whole entry)
# Description: Displacement of [3H]-8-OH-DPAT from human 5-HT1AR expressed in HEK293 cell membranes after 1 hr by microbeta counting method
# [17] = molecular target: T3, 5-hydroxytryptamine receptor 1A; test: Partial agonist activity at human 5-HT1AR expressed in CHO-K1 cells assessed as increase in cAMP accumulation by chemiluminescence-based assay; format: functional, cell-based
# [18] = molecular target: D(2) dopamine receptor (Homo sapiens) (UniProt P14416); test: Antagonist activity at human D2LR expressed in CHO-K1 cells assessed as inhibition of dopamine-induced calcium flux at 10^-6 M by fluorimetric method; format: functional, cell-based
# [19] = Drug level in Wistar rat brain at 3 mg/kg, ip measured after 60 mins by LC-MS/MS analysis; format: ADME, organism-based; settings: read-out: Drug uptake
# [20] = molecular target: T4, 5-hydroxytryptamine receptor 2A (Homo sapiens, UniProt P28223); test: Antagonist activity at human 5-HT2AR expressed in HEK293 cells assessed as inhibition of serotonin-induced calcium flux after 30 mins by HTRF method; format: functional, cell-based
# T4 sequence (P28223 whole entry): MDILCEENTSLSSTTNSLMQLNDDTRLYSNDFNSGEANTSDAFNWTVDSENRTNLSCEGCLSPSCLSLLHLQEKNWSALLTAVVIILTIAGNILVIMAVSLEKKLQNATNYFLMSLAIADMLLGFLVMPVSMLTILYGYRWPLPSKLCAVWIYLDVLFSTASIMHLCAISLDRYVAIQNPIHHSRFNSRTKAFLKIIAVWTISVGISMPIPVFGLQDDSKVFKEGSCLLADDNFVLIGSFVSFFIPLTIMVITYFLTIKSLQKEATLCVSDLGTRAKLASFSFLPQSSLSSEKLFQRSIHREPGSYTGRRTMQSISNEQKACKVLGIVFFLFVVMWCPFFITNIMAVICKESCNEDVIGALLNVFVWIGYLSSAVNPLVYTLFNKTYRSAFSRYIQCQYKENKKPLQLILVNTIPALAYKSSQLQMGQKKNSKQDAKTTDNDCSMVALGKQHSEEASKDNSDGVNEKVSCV
# [21] = molecular target: T2, 5-hydroxytryptamine receptor 7; test: biochemical
# Description: Displacement of [3H]-5-CT from human 5-HT7R expressed in HEK293 cell membranes after 1 hr at 37 degC by microbeta counting method
# [22] = Drug level in Wistar rat plasma at 3 mg/kg, ip measured after 30 mins by LC-MS/MS analysis; format: ADME, organism-based
# [23] = molecular target: T4, 5-hydroxytryptamine receptor 2A; test: biochemical; format: cell-based, CHO-K1
# [24] = Ratio of drug level in brain to plasma in Wistar rat at 3 mg/kg, ip measured after 30 mins by LC-MS/MS analysis; format: ADME, organism-based; settings: read-out: BPR
# [25] = Ratio of drug level in brain to plasma in Wistar rat at 3 mg/kg, ip measured after 15 mins by LC-MS/MS analysis; format: ADME, organism-based; settings: read-out: BPR
# [26] = molecular target: T1, 5-hydroxytryptamine receptor 1A (Homo sapiens); test: Partial agonist activity at human 5-HT1AR expressed in CHO-K1 cells assessed as increase in cAMP accumulation at 10^-6 M by chemiluminescence-based assay relative to serotonin; format: functional, cell-based
# [27] = molecular target: T4, 5-hydroxytryptamine receptor 2A; test: Antagonist activity at human 5-HT2AR expressed in HEK293 cells assessed as inhibition of serotonin-induced calcium flux at 10^-6 M after 30 mins by HTRF method; format: functional, cell-based
# [28] = Drug level in Wistar rat brain at 3 mg/kg, ip measured after 15 mins by LC-MS/MS analysis; format: ADME, organism-based; settings: read-out: Drug uptake
# [29] = Drug level in Wistar rat plasma at 3 mg/kg, ip measured after 60 mins by LC-MS/MS analysis; format: ADME, organism-based
# [30] = molecular target: T5, 5-hydroxytryptamine receptor 6 (Homo sapiens, UniProt P50406); test: Antagonist activity at human 5-HT6R expressed in CHO-K1 cells assessed as inhibition of serotonin-induced cAMP accumulation at 10^-6 M after 30 mins by chemiluminescence-based assay; format: functional, cell-based
# T5 sequence (P50406 whole entry): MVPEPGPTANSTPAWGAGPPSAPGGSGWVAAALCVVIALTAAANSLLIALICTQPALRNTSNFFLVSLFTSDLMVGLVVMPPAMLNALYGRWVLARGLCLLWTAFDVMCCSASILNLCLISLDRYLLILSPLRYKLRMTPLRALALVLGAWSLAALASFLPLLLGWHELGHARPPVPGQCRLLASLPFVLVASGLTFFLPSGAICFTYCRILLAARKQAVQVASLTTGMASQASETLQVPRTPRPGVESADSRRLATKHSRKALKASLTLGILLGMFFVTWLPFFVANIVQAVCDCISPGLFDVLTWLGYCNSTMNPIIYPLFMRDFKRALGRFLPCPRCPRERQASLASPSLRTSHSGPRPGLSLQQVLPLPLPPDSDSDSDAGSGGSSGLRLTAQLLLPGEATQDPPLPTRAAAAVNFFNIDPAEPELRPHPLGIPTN
# [31] = Ratio of drug level in brain to plasma in Wistar rat at 3 mg/kg, ip measured after 60 mins by LC-MS/MS analysis; format: ADME, organism-based; settings: read-out: BPR
# [32] = Drug level in Wistar rat plasma at 3 mg/kg, ip measured after 15 mins by LC-MS/MS analysis; format: ADME, organism-based
# [33] = molecular target: T5, 5-hydroxytryptamine receptor 6; test: biochemical
# Description: Displacement of [3H]-LSD from human 5-HT6R expressed in HEK293 cell membranes after 1 hr at 37 degC by microbeta counting method
# Rattus norvegicus [34] = test: Reversal of ketamine-induced working social withdrawal in Sprague-Dawley rat at 1 mg/kg, ip pretreated for 60 mins followed by ketamine administration; format: functional, organism-based
# Rattus norvegicus [35] = test: Toxicity in Sprague-Dawley rat assessed as induction of catalepsy at 30 mg/kg, ip measured every 30 mins up to 240 mins by bar test; format: organism-based; settings: in vivo
# [36] = Effect on failure incidence during conditioned avoidance response test in ip dosed Sprague-Dawley rat administered 60 mins prior to testing; format: ADME, organism-based; settings: in vivo
# Rattus norvegicus [37] = test: Effect on failure incidence during conditioned avoidance response test in Sprague-Dawley rat at 6 mg/kg, ip administered 60 mins prior to testing; format: ADME, organism-based; settings: in vivo, 1 h
smiles,measurement,setting,value
O=C(CCCN1CCC2(CC1)C(=O)NCN2c1ccccc1)c1ccc(F)cc1,inhibition,[1],100%
Cc1cc2c(s1)Nc1ccccc1N=C2N1CCN(C)CC1 [OLANZAPINE],minimal effective dose,Rattus norvegicus [2],1.25 mg/kg
same,Activity,Rattus norvegicus [3],Non-Toxic
same,MTD at 0.5 h,[4],1.25 mg/kg
same,minimal effective dose,Rattus norvegicus [5],1 mg/kg
same,minimal effective dose,Rattus norvegicus [6],1.88 mg/kg
same,MTD,[7],40 mg/kg
same,Activity,Rattus norvegicus [8],Toxic
CSc1ccc2c(c1)C(N1CCN(C)CC1)Cc1ccccc1S2 (centres undefined),Kb,[9],14 nM
O=S(=O)(c1cncc2ccccc12)N1CCC[C@@H]1CCN1CCN(c2cccc3sccc23)CC1,concentration at 0.5 h,[10],242 nM
same,inhibition,[11],78%
same,Activity,Rattus norvegicus [12],inactive
same,Kb,[13],0.47 nM
same,inhibition,[14],100%
same,Kb,[15],0.74 nM
same,MTD at 0.5 h,[4],3 mg/kg
same,pKi,[16],7.62
same,pEC50,[17],7.96
same,inhibition,[18],100%
same,concentration at 1 h,[19],114 nM
same,Kb,[20],9.5 nM
same,pKi,[21],8.40
same,concentration at 0.5 h,[22],518 nM
same,pKi,[23],7.59
same,Kp at 0.5 h,[24],0.48
same,Kp at 0.25 h,[25],0.47
same,Activity,[26],36%
same,inhibition,[27],100%
same,concentration at 0.25 h,[28],266 nM
same,concentration at 1 h,[29],96.7 nM
same,inhibition,[30],73%
same,Kp at 1 h,[31],1.24
same,concentration at 0.25 h,[32],564 nM
O=C1Cc2cc(CCN3CCN(c4nsc5ccccc45)CC3)c(Cl)cc2N1 [ZIPRASIDONE],minimal effective dose,Rattus norvegicus [2],1 mg/kg
same,pKi,[33],7.70
same,Activity,Rattus norvegicus [34],inactive
same,MTD at 0.5 h,[4],3 mg/kg
same,minimal effective dose,Rattus norvegicus [5],1 mg/kg
same,pKi,[16],8.70
same,Activity,Rattus norvegicus [35],Non-Toxic
same,MTD at 1 h,[36],2 mg/kg
same,minimal effective dose,Rattus norvegicus [6],1 mg/kg
same,Activity,Rattus norvegicus [8],Toxic
CN1CCN(C2=Nc3cc(Cl)ccc3Nc3ccccc32)CC1 [CLOZAPINE],minimal effective dose,Rattus norvegicus [2],1 mg/kg
same,Activity,Rattus norvegicus [34],inactive
same,MTD at 0.5 h,[4],3 mg/kg
same,minimal effective dose,Rattus norvegicus [5],1 mg/kg
same,minimal effective dose,Rattus norvegicus [6],1 mg/kg
same,Activity,Rattus norvegicus [37],Non-Toxic
